# Experimental data taken from the supplement of paper PMC10307832.
# Tests used:
# Assay in all cases: relative viability (nuclei count vs DMSO), 5 days (fraction); higher = more cells survive
# 201T = test system: 201T
# Procedure, shortened: (§1)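 Values are medians from duplicate plates. Each reflects relative viability, defined as the nuclei count of treated wells over that of vehicle wells. Lung cancer cell lines in 1536-well plates were pin-tool dosed one day after seeding with one drug alone or with a fixed anchor-drug dose plus five library-drug doses (not always all listed) in √10 steps, then fixed, stained and imaged at 4× after 5 days.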
# A-427 = test system: A-427
# Procedure, shortened: as §1
# COR-L 105 = test system: COR-L 105
# Procedure, shortened: as §1
# COR-L23 = test system: COR-L23
# Procedure, shortened: as §1
# EKVX = test system: EKVX
# Procedure, shortened: as §1
# HARA = test system: HARA
# Procedure, shortened: as §1
# HCC-15 = test system: HCC-15
# Procedure, shortened: as §1
# HCC-44 = test system: HCC-44
# Procedure, shortened: as §1
# HCC-827 = test system: HCC-827
# Procedure, shortened: as §1
# LCLC-103H = test system: LCLC-103H
# Procedure, shortened: as §1
# LK-2 = test system: LK-2
# Procedure, shortened: as §1
# NCI-H1437 = test system: NCI-H1437
# Procedure, shortened: as §1
# NCI-H1666 = test system: NCI-H1666
# Procedure, shortened: as §1
# NCI-H1792 = test system: NCI-H1792
# Procedure, shortened: as §1
# NCI-H1975 = test system: NCI-H1975
# Procedure, shortened: as §1
# NCI-H23 = test system: NCI-H23
# Procedure, shortened: as §1
# NCI-H441 = test system: NCI-H441
# Procedure, shortened: as §1
# NCI-H520 = test system: NCI-H520
# Procedure, shortened: as §1
# NCI-H522 = test system: NCI-H522
# Procedure, shortened: as §1
# NCI-H596 = test system: NCI-H596
# Procedure, shortened: as §1
# NCI-H650 = test system: NCI-H650
# Procedure, shortened: as §1
# NCI-H838 = test system: NCI-H838
# Procedure, shortened: as §1
# SK-MES-1 = test system: SK-MES-1
# Procedure, shortened: as §1
# SW 900 = test system: SW 900
# Procedure, shortened: as §1
compound,measurement,setting,value
Clc1ccc(Nc2nnc(Cc3ccncc3)c3ccccc23)cc1 [Vatalanib] + CC(=O)Nc1cccc(-n2c(=O)n(C3CC3)c(=O)c3c(Nc4ccc(I)cc4F)n(C)c(=O)c(C)c32)c1 [Trametinib] (partner 0.02 µM),relative viability,201T; first compound 0.04 µM,0.718
same,relative viability,201T; first compound 0.1265 µM,0.743
same,relative viability,201T; first compound 0.4 µM,0.75
same,relative viability,201T; first compound 1.265 µM,0.731
same,relative viability,201T; first compound 4 µM,0.735
same,relative viability,A-427; first compound 0.04 µM,0.741
same,relative viability,A-427; first compound 0.1265 µM,0.743
same,relative viability,A-427; first compound 0.4 µM,0.867
same,relative viability,A-427; first compound 4 µM,0.73
same,relative viability,COR-L 105; first compound 0.04 µM,0.451
same,relative viability,COR-L 105; first compound 0.1265 µM,0.363
same,relative viability,COR-L 105; first compound 0.4 µM,0.427
same,relative viability,COR-L 105; first compound 1.265 µM,0.443
same,relative viability,COR-L 105; first compound 4 µM,0.426
same,relative viability,COR-L23; first compound 0.04 µM,0.606
same,relative viability,COR-L23; first compound 0.1265 µM,0.587
same,relative viability,COR-L23; first compound 0.4 µM,0.721
same,relative viability,COR-L23; first compound 1.265 µM,0.578
same,relative viability,COR-L23; first compound 4 µM,0.534
same,relative viability,EKVX; first compound 0.04 µM,0.274
same,relative viability,EKVX; first compound 0.1265 µM,0.409
same,relative viability,EKVX; first compound 0.4 µM,0.308
same,relative viability,EKVX; first compound 1.265 µM,0.351
same,relative viability,EKVX; first compound 4 µM,0.39
same,relative viability,HARA; first compound 0.04 µM,0.687
same,relative viability,HARA; first compound 0.1265 µM,0.728
same,relative viability,HARA; first compound 0.4 µM,0.606
same,relative viability,HARA; first compound 1.265 µM,0.677
same,relative viability,HARA; first compound 4 µM,0.909
same,relative viability,HCC-15; first compound 0.04 µM,0.392
same,relative viability,HCC-15; first compound 0.1265 µM,0.412
same,relative viability,HCC-15; first compound 0.4 µM,0.404
same,relative viability,HCC-15; first compound 1.265 µM,0.365
same,relative viability,HCC-15; first compound 4 µM,0.365
same,relative viability,HCC-44; first compound 0.04 µM,1.06
same,relative viability,HCC-44; first compound 0.1265 µM,1.07
same,relative viability,HCC-44; first compound 0.4 µM,0.959
same,relative viability,HCC-44; first compound 1.265 µM,0.994
same,relative viability,HCC-44; first compound 4 µM,1.02
same,relative viability,HCC-827; first compound 0.04 µM,0.519
same,relative viability,HCC-827; first compound 0.1265 µM,0.578
same,relative viability,HCC-827; first compound 1.265 µM,0.52
same,relative viability,HCC-827; first compound 4 µM,0.522
same,relative viability,LCLC-103H; first compound 0.04 µM,0.663
same,relative viability,LCLC-103H; first compound 0.1265 µM,0.663
same,relative viability,LCLC-103H; first compound 0.4 µM,0.684
same,relative viability,LCLC-103H; first compound 1.265 µM,0.653
same,relative viability,LCLC-103H; first compound 4 µM,0.669
same,relative viability,LK-2; first compound 0.04 µM,0.677
same,relative viability,LK-2; first compound 0.1265 µM,0.682
same,relative viability,LK-2; first compound 0.4 µM,0.774
same,relative viability,LK-2; first compound 1.265 µM,0.876
same,relative viability,LK-2; first compound 4 µM,0.667
same,relative viability,NCI-H1437; first compound 0.04 µM,0.571
same,relative viability,NCI-H1437; first compound 0.1265 µM,0.499
same,relative viability,NCI-H1437; first compound 0.4 µM,0.554
same,relative viability,NCI-H1437; first compound 1.265 µM,0.451
same,relative viability,NCI-H1437; first compound 4 µM,0.486
same,relative viability,NCI-H1666; first compound 0.04 µM,0.83
same,relative viability,NCI-H1666; first compound 0.1265 µM,0.886
same,relative viability,NCI-H1666; first compound 0.4 µM,0.88
same,relative viability,NCI-H1666; first compound 1.265 µM,0.912
same,relative viability,NCI-H1666; first compound 4 µM,0.782
same,relative viability,NCI-H1792; first compound 0.04 µM,0.528
same,relative viability,NCI-H1792; first compound 0.1265 µM,0.395
same,relative viability,NCI-H1792; first compound 0.4 µM,0.394
same,relative viability,NCI-H1792; first compound 1.265 µM,0.399
same,relative viability,NCI-H1792; first compound 4 µM,0.456
same,relative viability,NCI-H1975; first compound 0.04 µM,0.317
same,relative viability,NCI-H1975; first compound 0.1265 µM,0.345
same,relative viability,NCI-H1975; first compound 0.4 µM,0.434
same,relative viability,NCI-H1975; first compound 1.265 µM,0.315
same,relative viability,NCI-H1975; first compound 4 µM,0.361
same,relative viability,NCI-H23; first compound 0.04 µM,0.308
same,relative viability,NCI-H23; first compound 0.1265 µM,0.296
same,relative viability,NCI-H23; first compound 0.4 µM,0.356
same,relative viability,NCI-H23; first compound 1.265 µM,0.363
same,relative viability,NCI-H23; first compound 4 µM,0.419
same,relative viability,NCI-H441; first compound 0.04 µM,0.435
same,relative viability,NCI-H441; first compound 0.1265 µM,0.366
same,relative viability,NCI-H441; first compound 0.4 µM,0.476
same,relative viability,NCI-H441; first compound 1.265 µM,0.411
same,relative viability,NCI-H441; first compound 4 µM,0.421
same,relative viability,NCI-H520; first compound 0.04 µM,0.794
same,relative viability,NCI-H520; first compound 0.1265 µM,0.654
same,relative viability,NCI-H520; first compound 0.4 µM,0.766
same,relative viability,NCI-H520; first compound 1.265 µM,0.615
same,relative viability,NCI-H520; first compound 4 µM,0.602
same,relative viability,NCI-H522; first compound 0.04 µM,0.73
same,relative viability,NCI-H522; first compound 0.1265 µM,0.714
same,relative viability,NCI-H522; first compound 0.4 µM,0.714
same,relative viability,NCI-H522; first compound 1.265 µM,0.754
same,relative viability,NCI-H522; first compound 4 µM,0.882
same,relative viability,NCI-H596; first compound 0.04 µM,0.782
same,relative viability,NCI-H596; first compound 0.1265 µM,0.88
same,relative viability,NCI-H596; first compound 0.4 µM,0.76
same,relative viability,NCI-H596; first compound 1.265 µM,0.751
same,relative viability,NCI-H596; first compound 4 µM,0.75
same,relative viability,NCI-H650; first compound 0.04 µM,0.941
same,relative viability,NCI-H650; first compound 0.1265 µM,0.796
same,relative viability,NCI-H650; first compound 0.4 µM,0.997
same,relative viability,NCI-H650; first compound 1.265 µM,0.924
same,relative viability,NCI-H650; first compound 4 µM,0.904
same,relative viability,NCI-H838; first compound 0.04 µM,0.575
same,relative viability,NCI-H838; first compound 0.1265 µM,0.539
same,relative viability,NCI-H838; first compound 0.4 µM,0.657
same,relative viability,NCI-H838; first compound 1.265 µM,0.462
same,relative viability,NCI-H838; first compound 4 µM,0.509
same,relative viability,SK-MES-1; first compound 0.04 µM,0.507
same,relative viability,SK-MES-1; first compound 0.1265 µM,0.503
same,relative viability,SK-MES-1; first compound 0.4 µM,0.573
same,relative viability,SK-MES-1; first compound 1.265 µM,0.548
same,relative viability,SK-MES-1; first compound 4 µM,0.507
same,relative viability,SW 900; first compound 0.04 µM,0.768
same,relative viability,SW 900; first compound 0.1265 µM,0.696
same,relative viability,SW 900; first compound 0.4 µM,0.558
same,relative viability,SW 900; first compound 1.265 µM,0.877
same,relative viability,SW 900; first compound 4 µM,0.714
